In US8524682B2, “Compositions and methods for inhibiting EZH2” (The Regents of the University of Michigan, priority 2007, dated 2013):

Legend:
Format in all cases: cell-based
[1] = target: T1, EZH2 (Homo sapiens, UniProt Q15910); assay: Quantitative SYBR green RT-PCR of E cadherin transcripts in EZH2 overexpressing cells
T1 construct: expressed in transfected cells
Method: A, Chemical structure of the flavonoid isoliquiritigenin. B, Quantitative SYBR green RT-PCR of EZH2 and E cadherin transcripts in cell lines over expressing EZH2 and control adenoviruses. RT-PCR on each sample was performed in duplicate, and a ratio was calculated relative to the housekeeping genes GAPDH. Transcripts were also measured in cells that were treated with isoliquiritigenin or other small molecules.
(§1) A, Dose response of isoliquiritigenin on inhibiting EZH2 mediated repression. B, A reconstituted basement membrane invasion chamber assay was used to assess the invasion of breast epithelial cell line infected with EZH2 and control adenoviruses as well as SET domain mutant EZH2 adenovirus. EZH2 treated cells were also treated with SAHA, the HDAC inhibitor and isoliquiritigenin, the small molecule inhibitor of EZH2 and the control small molecule phloretin.

[2] = target: T1, EZH2; assay: E-cadherin promoter-luciferase reporter high throughput screen in EZH2 adenovirus infected cells; conditions: final compound concentration about 5 μM, 24 hours
Method: A high throughput screening protocol was used to identify small molecule inhibitors of EZH2. Primary breast cancer cells were transfected with the E-cadherin promoter luciferase reporter gene and infected with the EZH2 adenovirus to suppress luciferase expression 48 hours prior to compound addition. Eighteen hours prior to compound addition, cells were trypsinized and distributed into 384-well plates in 60 μl of medium using the Multidrop equipment. At time zero, compounds were transferred from 1.5 mM DMSO stocks to the cell plates in a final compound concentration of about 5 μM. […] After 24 hours, the expressed luciferase activity was measured by adding 50 μl of the medium and 10 μl of Steady-Glo luciferase reagent (Promega). Sample plates were read in the Pherastar plate reader (BMG Labtech). Each plate in the screen contains 320 compounds to be tested plus 64 control wells placed in the outer two columns on each side of the plate (>50,000 compounds are screened). […] More than 4000 small molecules were screened, which included synthetic chemicals as well as natural products that are available in the Center for Chemical Genomics (CCG) library at the University of Michigan.

[3] = test system: HME cells overexpressing EZH2; assay: Basement membrane invasion chamber assay, breast cell line HME overexpressing EZH2
Method: as §1

T1 sequence (Q15910 whole entry): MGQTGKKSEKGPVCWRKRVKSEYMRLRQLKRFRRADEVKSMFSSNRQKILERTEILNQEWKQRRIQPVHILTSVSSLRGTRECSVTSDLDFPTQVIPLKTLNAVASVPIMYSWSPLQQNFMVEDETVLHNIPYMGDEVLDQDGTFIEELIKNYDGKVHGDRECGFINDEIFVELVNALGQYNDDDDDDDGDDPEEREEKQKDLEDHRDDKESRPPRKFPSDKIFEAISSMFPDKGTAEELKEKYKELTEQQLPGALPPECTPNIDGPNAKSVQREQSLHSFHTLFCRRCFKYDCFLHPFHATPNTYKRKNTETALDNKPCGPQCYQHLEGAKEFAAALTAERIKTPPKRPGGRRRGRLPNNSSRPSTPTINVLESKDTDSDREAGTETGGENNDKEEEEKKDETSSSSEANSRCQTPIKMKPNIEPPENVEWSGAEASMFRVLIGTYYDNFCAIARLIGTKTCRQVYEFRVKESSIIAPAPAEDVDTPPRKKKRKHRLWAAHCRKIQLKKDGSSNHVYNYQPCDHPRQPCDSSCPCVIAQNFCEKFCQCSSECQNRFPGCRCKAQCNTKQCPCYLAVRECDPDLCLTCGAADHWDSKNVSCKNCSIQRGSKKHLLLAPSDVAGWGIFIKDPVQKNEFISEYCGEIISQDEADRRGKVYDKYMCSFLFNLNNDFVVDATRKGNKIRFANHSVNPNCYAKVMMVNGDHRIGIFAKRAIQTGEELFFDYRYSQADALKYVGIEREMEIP

O=C(/C=C/c1ccc(O)cc1)c1ccc(O)cc1O [isoliquiritigenin]
inhibition of EZH2 mediated E cadherin repression ([1]; RT-PCR, cells over expressing EZH2): significantly inhibit | concentration that optimally inhibits the EZH2 mediated E cadherin repression ([1]; dose response): 16 µM | EZH2 inhibitory activity [2]: potent small molecule inhibitor of EZH2 activity | inhibition of invasion mediated by EZH2 overexpression [3]: inhibited this invasion
